Laboratory results published in ChEMBL document CHEMBL1129225, “Synthesis of 11,13-bridged progestational steroids” (1997).
Active and inactive are the calls of the source. The calls are words filed in the database; no cut-off is given here.

Key:
[1] = molecular target: T1, Progesterone receptor (Homo sapiens) (UniProt P06401); test: Relative binding affinity to progesterone receptor of MCF-7 cytosol; No competitive binding
T1 sequence (whole entry): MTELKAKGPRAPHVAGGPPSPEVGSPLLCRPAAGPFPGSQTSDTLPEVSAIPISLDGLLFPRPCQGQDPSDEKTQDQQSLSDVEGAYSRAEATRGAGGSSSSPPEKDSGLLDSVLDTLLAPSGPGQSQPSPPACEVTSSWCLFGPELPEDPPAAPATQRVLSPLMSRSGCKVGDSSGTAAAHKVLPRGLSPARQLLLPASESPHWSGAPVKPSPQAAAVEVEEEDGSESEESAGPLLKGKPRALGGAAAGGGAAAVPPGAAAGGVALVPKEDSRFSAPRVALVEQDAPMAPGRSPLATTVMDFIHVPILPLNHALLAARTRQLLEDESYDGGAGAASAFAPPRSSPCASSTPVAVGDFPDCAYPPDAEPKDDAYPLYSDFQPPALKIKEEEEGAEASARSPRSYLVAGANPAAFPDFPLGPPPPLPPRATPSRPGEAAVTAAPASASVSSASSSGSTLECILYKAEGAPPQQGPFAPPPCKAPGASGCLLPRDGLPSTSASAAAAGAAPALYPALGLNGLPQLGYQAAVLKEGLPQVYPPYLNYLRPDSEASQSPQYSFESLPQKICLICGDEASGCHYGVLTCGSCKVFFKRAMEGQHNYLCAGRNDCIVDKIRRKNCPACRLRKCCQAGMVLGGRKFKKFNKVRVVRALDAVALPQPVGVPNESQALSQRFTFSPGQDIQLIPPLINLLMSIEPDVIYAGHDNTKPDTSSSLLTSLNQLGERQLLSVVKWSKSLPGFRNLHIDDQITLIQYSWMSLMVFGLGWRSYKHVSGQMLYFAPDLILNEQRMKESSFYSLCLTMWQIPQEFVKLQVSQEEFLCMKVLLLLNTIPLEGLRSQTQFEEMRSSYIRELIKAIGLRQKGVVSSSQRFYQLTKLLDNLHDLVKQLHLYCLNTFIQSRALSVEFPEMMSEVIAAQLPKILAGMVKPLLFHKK

[2] = tested on: Oryctolagus cuniculus; test: In vivo activity using McPhail test after oral dose; assay type: functional

Row | Structure (SMILES) | relative binding affinity (RBA) [1] | ED2 [2] [mg/kg]
1 | C#C[C@]1(O)CCC2C3CCC4=CC(=O)CCC4C3[C@@H]3C[C@@]21CO3 (stereo partly specified) | inactive | >4
2 | C#C[C@]1(O)CCC2C3CCC4=CC(=O)CCC4C3[C@H]3C=C[C@]21C3 (stereo partly specified) |  | >0.125
3 | C#C[C@]1(O)CC[C@H]2[C@@H]3CCC4=CC(=O)CC[C@@H]4[C@H]3CC[C@@]21C [NORETHINDRONE] |  | 0.5
4 | C#C[C@]1(O)CCC2C3CCC4=CC(=O)CCC4C3[C@H]3CC[C@]21C3 (stereo partly specified) |  | 0.032
5 | C#C[C@]1(O)CCC2C3CCC4=CC(=O)CCC4C3[C@@H](C)CC21C (stereo partly specified) |  | 0.015
